According to US6599743B2, “Method for microproduction of tea plants from leaf explants” (Council of Scientific & Industrial Research, priority 2001, dated 2003):

System: rhizogenic calli derived from leaf explants
Assay: adventitious shoot bud formation on rhizogenic calli derived from tea leaf explants
Format: cell-based, Camellia sinensis
Conditions: rhizogenic calli transferred to auxin free MS medium with 0.5 to 8 mg/l 6 Benzyl amino purine
Experimental: iv) For adventitious shoot bud formation, the rhizogenic callus cultures obtained from step (iii) were transferred to (0.8%) agar solidified basal MS medium supplemented with 6 Benzyl amino purine (0.5 to 8.0 mg/l) and 3% sucrose.
After 4-10 weeks, the rhizogenic callus was transferred to (0.8%) agar solidified basal MS medium supplemented with 3% sucrose and 0.5 to 8.0 mg/l 6 Benzyl amino purine for adventitious shoot bud formation.

c1ccc(CNc2ncnc3nc[nH]c23)cc1 [6 Benzyl amino purine] was tested, and the “adventitious shoot bud development” value was “more than 30%” and the “explants responding (leaf explant response)” value was ~100%.
